These results are taken from patent US20150265691A1 (priority 2006, published 2015).

Values joined by “and” are separate entries in the source; they are usually repeats but may differ in a detail not shown here. Equal entries are not always repeated.

Common to all, as to format: binding
Assay [1] relates to rabbit anti-B. anthracis spore polyclonal IgG antibodies.
Assay [2] has the same test system. The source holds these as a separate data set.
Assay [3] relates to rabbit anti-anthrax spore IgG.
Assay [4] concerns rabbit anti-anthrax spore IgG. This is another data set of the same source.

Consider `COC(=O)CCCCCO[C@@H]1O[C@H](C)[C@@H](NC(=O)CC(C)(C)O)[C@H](O)[C@H]1OC` [Saccharide 1, 5-(Methoxycarbonyl)pentyl 4-(3-hydroxy-3-methylbutanamido)-2-O-methyl-4,6-dideoxy-β-D-glucopyranoside], for which, in assay [1], the “blocking of antibody reactivity with anthrose-containing tri- and tetra-saccharides” value is recorded as “blocked the antibody reactivity”; the “inhibition of other antibody reactivities: binding to isolichenin and Pn 23 polysaccharide” value is listed as “no significant inhibition”. Besides, in assay [2], the “IgG signal detected by glycan arrays (n = 3) Mean” value (shortened to “IgG signal detected”) is reported as 1.44 and the “antibody reactivity detected by glycan arrays” value (“antibody reactivity detected” below) is recorded as “marginally reactive”. In addition, the “I^50” value in assay [3] came to 7.3 nmol. For the same compound, in assay [4], the IC50 turned out to be 0.688 nM and the relative inhibiting powers amounted to 43.3.
With `COC(=O)CCCCCO[C@@H]1O[C@@H](C)[C@H](O)[C@@H](O)[C@H]1O[C@@H]1O[C@@H](C)[C@H](O)[C@@H](O[C@@H]2O[C@@H](C)[C@H](O)[C@@H](O[C@@H]3O[C@H](C)[C@@H](NC(=O)CC(C)(C)O)[C@H](O)[C@H]3OC)[C@H]2O)[C@H]1O` [Saccharide 5, 5-(Methoxycarbonyl)pentyl 4-(3-hydroxy-3-methylbutanamido)-2-O-methyl-4,6-dideoxy-β-D-glucopyranosyl-(1→3)-α-L-rhamnopyranoyl-(1→3)-α-L-rhamnopyranosyl-(1→2)-α-L-rhamnopyranoside], in assay [2], the “IgG signal detected” value was determined as 5.19 and the “antibody reactivity detected” value is recorded as “significant amounts of IgG antibodies”. In addition, the “I^50” value in assay [3] was 0.18 nmol.
On to `COC(=O)CCCCCO[C@@H]1O[C@@H](C)[C@H](O)[C@@H](O[C@@H]2O[C@H](C)[C@@H](NC(=O)CC(C)(C)O)[C@H](O)[C@H]2OC)[C@H]1O` [Saccharide 2, 5-(Methoxycarbonyl)pentyl 4-(3-hydroxy-3-methylbutanamido)-2-O-methyl-4,6-dideoxy-β-D-glucopyranosyl-(1→3)-α-L-rhamnopyranoside], for which, in assay [2], the “IgG signal detected” value was determined as 1.65 and the “antibody reactivity detected” value is “marginally reactive”. In addition, in assay [4], the IC50 was 0.019 nM and the relative inhibiting powers is 1.18.
Regarding `COC(=O)CCCCCO[C@@H]1O[C@@H](C)[C@H](O)[C@@H](O)[C@H]1O[C@@H]1O[C@@H](C)[C@H](O)[C@@H](O[C@@H]2O[C@H](C)[C@@H](NC(=O)CC(C)(C)O)[C@H](O)[C@H]2OC)[C@H]1O` [Saccharide 3, 5-(Methoxycarbonyl)pentyl 4-(3-hydroxy-3-methylbutanamido)-2-O-methyl-4,6-dideoxy-β-D-glucopyranosyl-(1→3)-α-L-rhamnopyranosyl-(1→2)-α-L-rhamnopyranoside], in assay [2], the “IgG signal detected” value amounted to 2.73 and the “antibody reactivity detected” value is reported as “significant amounts of IgG antibodies”. In assay [4], the IC50 is 0.016 nM and the relative inhibiting powers was 1.00.
For `COC(=O)CCCCCO[C@H]1O[C@@H](C)[C@H](O)[C@@H](O)[C@H]1O[C@@H]1O[C@@H](C)[C@H](O)[C@@H](O[C@@H]2O[C@@H](C)[C@H](O)[C@@H](O[C@@H]3O[C@H](C)[C@@H](NC(=O)CC(C)(C)O)[C@H](O)[C@H]3OC)[C@H]2O)[C@H]1O` [Saccharide 4, 5-(Methoxycarbonyl)pentyl 4-(3-hydroxy-3-methylbutanamido)-2-O-methyl-4,6-dideoxy-β-D-glucopyranosyl-(1→3)-α-L-rhamnopyranoyl-(1→3)-α-L-rhamnopyranosyl-(1→2)-β-L-rhamnopyranoside], in assay [2], the “IgG signal detected” value is given as 5.16 and the “antibody reactivity detected” value is “significant amounts of IgG antibodies”. Moreover, the “I^50” value in assay [3] amounted to 0.23 nmol.
Turning to `COC(=O)CCCCCO[C@@H]1O[C@@H](C)[C@H](O)[C@@H](O)[C@H]1O[C@@H]1O[C@@H](C)[C@H](O)[C@@H](O[C@@H]2O[C@@H](C)[C@H](O)[C@@H](O)[C@H]2O)[C@H]1O` [Saccharide 17, 5-(Methoxycarbonyl)pentyl α-L-rhamnopyranosyl-(1→3)-α-L-rhamnopyranosyl-(1→2)-α-L-rhamnopyranoside], the “IgG reactivities (Ratio of Sg./bg.) Mean” value in assay [1] was 1.04 and 0.97 and 1.00 and 0.99. Moreover, in assay [2], the “IgG signal detected” value amounted to 0.98.

For orientation: IC50 means the concentration at which inhibition is half-maximal.
